Experimental findings from publication PMC12104861, “Structural and mechanistic basis for the regulation of the chloroplast signal recognition particle by (p)ppGpp” (Febs Letters, 2025) are described below.

Assay [1] addresses T1, (cp)FtsY‐NG (Arabidopsis thaliana, UniProt O80842).
T1 construct: gene CPFTSY
T1 sequence (O80842 65-366): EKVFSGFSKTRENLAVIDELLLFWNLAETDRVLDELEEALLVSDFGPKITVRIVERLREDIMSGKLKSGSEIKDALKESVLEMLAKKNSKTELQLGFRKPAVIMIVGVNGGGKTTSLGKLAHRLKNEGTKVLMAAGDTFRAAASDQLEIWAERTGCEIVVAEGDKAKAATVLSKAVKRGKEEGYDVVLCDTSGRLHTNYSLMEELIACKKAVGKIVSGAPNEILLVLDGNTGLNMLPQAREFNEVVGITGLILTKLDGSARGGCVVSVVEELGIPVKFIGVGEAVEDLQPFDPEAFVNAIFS
Briefly: isothermal titration calorimetry. It counts as binding. From the text:
isothermal titration calorimetry on (cp)FtsY‐NG
A general note: ITC needs no label: the signal is the heat of the interaction.

A further assay deals with T2, (cp)SRP54 (Arabidopsis thaliana, UniProt P37107).
T2 construct: gene FFC; residues 79-564 (transit peptide removed), NG and M domains, hexa-histidine tag kept, expressed in E. coli BL21(DE3) Rosetta
T2 sequence (P37107 79-564): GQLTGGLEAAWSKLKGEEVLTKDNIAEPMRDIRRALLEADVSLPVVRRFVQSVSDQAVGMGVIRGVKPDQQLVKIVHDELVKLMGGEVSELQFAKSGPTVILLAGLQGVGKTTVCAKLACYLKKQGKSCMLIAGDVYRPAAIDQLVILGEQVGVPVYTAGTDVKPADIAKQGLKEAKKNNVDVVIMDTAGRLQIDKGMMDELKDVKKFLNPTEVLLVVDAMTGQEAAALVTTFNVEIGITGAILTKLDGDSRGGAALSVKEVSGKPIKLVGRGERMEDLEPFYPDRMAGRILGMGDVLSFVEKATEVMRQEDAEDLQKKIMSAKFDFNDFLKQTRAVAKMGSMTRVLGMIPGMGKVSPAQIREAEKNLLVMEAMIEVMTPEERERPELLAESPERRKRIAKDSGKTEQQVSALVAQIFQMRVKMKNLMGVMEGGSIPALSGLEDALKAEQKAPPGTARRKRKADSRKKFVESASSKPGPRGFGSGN
Briefly: isothermal titration calorimetry. The class given is binding. From the text:
isothermal titration calorimetry on (cp)SRP54

Assay [2] concerns the target T3, (cp)SRP54:FtsY‐NG complex (Arabidopsis thaliana, UniProt O80842+P37107).
T3 construct: gene FFC; GTPase heterodimer mixed from the two His-tagged proteins: SRP54 residues 79-564 and FtsY NG domain residues 65-366
T3 sequence (P37107 79-564): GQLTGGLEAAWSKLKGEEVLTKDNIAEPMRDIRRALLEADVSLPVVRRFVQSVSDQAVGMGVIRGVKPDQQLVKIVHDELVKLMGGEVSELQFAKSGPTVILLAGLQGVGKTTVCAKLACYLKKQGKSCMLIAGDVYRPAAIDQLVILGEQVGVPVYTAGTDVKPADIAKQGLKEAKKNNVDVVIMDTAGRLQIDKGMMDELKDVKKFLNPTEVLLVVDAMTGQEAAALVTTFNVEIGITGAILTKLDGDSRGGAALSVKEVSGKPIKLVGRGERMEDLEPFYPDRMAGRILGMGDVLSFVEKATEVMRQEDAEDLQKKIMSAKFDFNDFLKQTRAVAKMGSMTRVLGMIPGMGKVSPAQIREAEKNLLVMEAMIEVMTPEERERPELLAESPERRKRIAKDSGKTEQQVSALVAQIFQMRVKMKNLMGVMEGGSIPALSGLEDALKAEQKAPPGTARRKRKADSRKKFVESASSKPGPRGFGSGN
T3 sequence (O80842 65-366): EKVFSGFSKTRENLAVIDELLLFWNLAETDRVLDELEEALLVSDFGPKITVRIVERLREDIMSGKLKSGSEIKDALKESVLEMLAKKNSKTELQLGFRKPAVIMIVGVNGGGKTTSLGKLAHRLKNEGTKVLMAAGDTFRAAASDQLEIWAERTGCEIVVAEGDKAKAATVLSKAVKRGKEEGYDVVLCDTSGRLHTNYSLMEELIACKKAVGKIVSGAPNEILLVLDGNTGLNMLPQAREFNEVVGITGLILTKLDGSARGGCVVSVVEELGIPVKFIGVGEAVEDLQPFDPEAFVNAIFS
Briefly: HPLC GTP hydrolysis assay. The class given is biochemical. To be noted: 10 μM each protein, 500 μM GTP, pH 7.5, 10 mM Mg(OAc)2, 37 °C.

The target in assay [3] is T3, (cp)SRP54:FtsY‐NG complex. The assay can be described thus: analytical size-exclusion chromatography of complex formation. It counts as binding. To be noted: nonhydrolysable GTP analogue promotes the heterodimer; 20 mM HEPES-K pH 7.5, 20 mM MgCl2. (In gel filtration, larger molecules generally elute earlier.)
Assay [4] addresses T1, (cp)FtsY‐NG. Briefly: X-ray crystal structure, […] Å. The note with it: Mg2+; canonical guanosine nucleotide-binding site; 100 mM Tris pH 8.5, 25% PEG1000.
For assay [5], the target named is T3, (cp)SRP54:FtsY‐NG complex. The assay can be described thus: HPLC GTP hydrolysis assay. The class given is biochemical. The note with it: read-out: residual GTPase activity (% GTP hydrolysed) at 10 mM, 30 min.
Assay [6] concerns the target T4, chloroplast signal recognition particle 54 kDa protein, (cp)SRP54 (Arabidopsis thaliana, UniProt P37107 79-564).
T4 construct: Arabidopsis thaliana (cp)SRP54, UniProt P37107, residues 79-564; the methods give residues 79-564; source: E. coli BL21 (DE3) Rosetta, purified (HisTrap FF, EDTA incubation, SEC Superdex 200)
T4 sequence (looked up): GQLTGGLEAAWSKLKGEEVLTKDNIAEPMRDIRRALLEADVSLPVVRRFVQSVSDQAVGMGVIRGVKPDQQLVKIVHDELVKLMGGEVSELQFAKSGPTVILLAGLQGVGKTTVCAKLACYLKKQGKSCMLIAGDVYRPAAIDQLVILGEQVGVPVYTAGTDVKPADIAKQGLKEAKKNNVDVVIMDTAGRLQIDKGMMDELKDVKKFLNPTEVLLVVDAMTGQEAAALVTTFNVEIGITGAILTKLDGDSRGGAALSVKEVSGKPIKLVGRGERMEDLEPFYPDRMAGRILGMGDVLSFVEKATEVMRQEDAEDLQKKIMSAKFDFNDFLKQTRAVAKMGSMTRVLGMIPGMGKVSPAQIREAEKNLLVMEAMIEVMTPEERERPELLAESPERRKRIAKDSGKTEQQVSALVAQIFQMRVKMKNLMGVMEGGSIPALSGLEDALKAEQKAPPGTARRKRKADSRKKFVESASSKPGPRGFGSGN
Briefly: SEC; analytical SEC, Superdex 200 Increase 10/300 GL; 100 uM of each protein in buffer C (20 mM HEPES-K pH 7.5, 200 mM NaCl, 20 mM KCl, 20 mM MgCl2) with increasing GppNHp; 30 min at room temperature; also 0.5 mM GppNHp with increasing ppGpp or pppGpp, which disrupt the complex. To be noted: both partners purified.

Consider `Nc1nc2c(ncn2[C@@H]2O[C@H](COP(=O)(O)OP(=O)(O)O)[C@@H](O)[C@H]2O)c(=O)[nH]1` [GDP], for which the Kd – broadly, the concentration at which binding is half-saturated – stood at 7.71 ± 0.4 µM on (cp)FtsY‐NG [1] and 23.5 ± 2.29 µM at (cp)SRP54.

For `Nc1nc2c(ncn2[C@@H]2O[C@H](COP(=O)(O)OP(=O)(O)OP(=O)(O)O)[C@@H](O)[C@H]2O)c(=O)[nH]1` [GTP], the “HPLC GTP hydrolysis assay” value in assay [2] is given as “significantly enhanced when in complex, hydrolysing nearly all available GTP”. Further, the values for the dissociation constant (Kd) on (cp)FtsY‐NG [1] and on (cp)SRP54 were 11.9 ± 2.44 µM and 51.8 ± 3.54 µM, respectively.

In the case of `Nc1nc2c(ncn2[C@@H]2O[C@H](COP(=O)(O)OP(=O)(O)NP(=O)(O)O)[C@@H](O)[C@H]2O)c(=O)[nH]1` [GppNHp], the “analytical size-exclusion chromatography of complex formation” value in assay [3] is “visualized the complex between (cp)SRP54 and (cp)FtsY‐NG at increasing concentrations of GppNHp”.

Regarding `Nc1nc2c(ncn2[C@@H]2O[C@H](COP(=O)(O)OP(=O)(O)O)[C@@H](OP(=O)(O)OP(=O)(O)O)[C@H]2O)c(=O)[nH]1` [ppGpp], the “X-ray crystal structure, 1.99 Å” value on (cp)FtsY‐NG [4] is “solve the crystal structure of the truncated form of (cp)FtsY from A. thaliana”. Also, the remaining activity at 10000 µM in assay [5] is roughly 20%. For the same molecule, the equilibrium dissociation constant (Kd) at (cp)FtsY‐NG [1] was 7.36 ± 1.46 µM; on (cp)SRP54 it was 32.5 ± 5.38 µM.

In the case of `Nc1nc2c(ncn2[C@@H]2O[C@H](COP(=O)(O)OP(=O)(O)OP(=O)(O)O)[C@@H](OP(=O)(O)OP(=O)(O)O)[C@H]2O)c(=O)[nH]1` [pppGpp], the remaining activity at 10000 µM in assay [5] was roughly 20%. Moreover, the values for the Kd at (cp)FtsY‐NG [1] and on (cp)SRP54 were 27.6 ± 3.64 µM and 47.8 ± 3.52 µM, respectively.

B1: NG domain of the chloroplast SRP receptor (cp)FtsY, (cp)FtsY-NG (domain or fragment, Arabidopsis thaliana, UniProt O80842 65-366, looked up)
chain: EKVFSGFSKTRENLAVIDELLLFWNLAETDRVLDELEEALLVSDFGPKITVRIVERLREDIMSGKLKSGSEIKDALKESVLEMLAKKNSKTELQLGFRKPAVIMIVGVNGGGKTTSLGKLAHRLKNEGTKVLMAAGDTFRAAASDQLEIWAERTGCEIVVAEGDKAKAATVLSKAVKRGKEEGYDVVLCDTSGRLHTNYSLMEELIACKKAVGKIVSGAPNEILLVLDGNTGLNMLPQAREFNEVVGITGLILTKLDGSARGGCVVSVVEELGIPVKFIGVGEAVEDLQPFDPEAFVNAIFS
notes: source: E. coli BL21 (DE3) Rosetta, purified (HisTrap FF, EDTA incubation, SEC Superdex 200)
For the molecule B1, the binding result in assay [6] was “binds”.
